Tests used:
Type in all cases: binding
Details in all cases: Compound Concentration 10 µM
panel of 442 kinases [1] = target: T1, panel of 442 kinases (Homo sapiens, UniProt P48736)
T1 construct: purchased KINOMEscan
Description: (§1) We assessed the selectivity of members of this scaffold using the KINOMEscan methodology across a near comprehensive panel of 442 kinases [[18,27]].

panel of 442 kinases [2] = target: T2, panel of 442 kinases (Homo sapiens, UniProt P53350)
T2 construct: purchased KINOMEscan
Description: as §1

panel of 442 kinases [3] = target: T3, panel of 442 kinases (Homo sapiens, UniProt P57078)
T3 construct: purchased KINOMEscan
T3 sequence (P57078 1-832): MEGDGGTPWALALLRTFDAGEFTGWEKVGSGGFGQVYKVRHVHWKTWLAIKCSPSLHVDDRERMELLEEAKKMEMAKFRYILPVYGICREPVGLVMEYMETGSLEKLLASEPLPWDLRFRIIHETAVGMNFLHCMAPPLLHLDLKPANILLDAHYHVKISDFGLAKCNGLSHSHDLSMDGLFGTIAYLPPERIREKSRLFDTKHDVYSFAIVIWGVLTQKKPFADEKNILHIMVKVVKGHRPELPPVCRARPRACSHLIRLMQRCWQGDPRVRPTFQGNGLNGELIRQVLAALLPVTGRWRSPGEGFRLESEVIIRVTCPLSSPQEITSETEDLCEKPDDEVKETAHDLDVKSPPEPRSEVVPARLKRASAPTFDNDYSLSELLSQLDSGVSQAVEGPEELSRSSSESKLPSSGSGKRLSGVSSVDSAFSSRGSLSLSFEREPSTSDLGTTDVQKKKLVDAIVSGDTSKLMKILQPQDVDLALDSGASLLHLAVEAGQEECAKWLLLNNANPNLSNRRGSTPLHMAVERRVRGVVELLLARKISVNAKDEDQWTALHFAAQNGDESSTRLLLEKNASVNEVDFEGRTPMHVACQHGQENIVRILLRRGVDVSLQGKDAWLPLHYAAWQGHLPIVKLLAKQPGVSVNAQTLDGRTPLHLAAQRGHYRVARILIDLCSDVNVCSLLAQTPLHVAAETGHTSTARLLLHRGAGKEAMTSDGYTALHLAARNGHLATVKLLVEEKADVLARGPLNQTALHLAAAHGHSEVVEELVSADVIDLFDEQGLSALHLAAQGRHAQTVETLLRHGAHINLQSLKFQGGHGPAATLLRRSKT
Description: as §1

T1 sequence (P48736 whole entry): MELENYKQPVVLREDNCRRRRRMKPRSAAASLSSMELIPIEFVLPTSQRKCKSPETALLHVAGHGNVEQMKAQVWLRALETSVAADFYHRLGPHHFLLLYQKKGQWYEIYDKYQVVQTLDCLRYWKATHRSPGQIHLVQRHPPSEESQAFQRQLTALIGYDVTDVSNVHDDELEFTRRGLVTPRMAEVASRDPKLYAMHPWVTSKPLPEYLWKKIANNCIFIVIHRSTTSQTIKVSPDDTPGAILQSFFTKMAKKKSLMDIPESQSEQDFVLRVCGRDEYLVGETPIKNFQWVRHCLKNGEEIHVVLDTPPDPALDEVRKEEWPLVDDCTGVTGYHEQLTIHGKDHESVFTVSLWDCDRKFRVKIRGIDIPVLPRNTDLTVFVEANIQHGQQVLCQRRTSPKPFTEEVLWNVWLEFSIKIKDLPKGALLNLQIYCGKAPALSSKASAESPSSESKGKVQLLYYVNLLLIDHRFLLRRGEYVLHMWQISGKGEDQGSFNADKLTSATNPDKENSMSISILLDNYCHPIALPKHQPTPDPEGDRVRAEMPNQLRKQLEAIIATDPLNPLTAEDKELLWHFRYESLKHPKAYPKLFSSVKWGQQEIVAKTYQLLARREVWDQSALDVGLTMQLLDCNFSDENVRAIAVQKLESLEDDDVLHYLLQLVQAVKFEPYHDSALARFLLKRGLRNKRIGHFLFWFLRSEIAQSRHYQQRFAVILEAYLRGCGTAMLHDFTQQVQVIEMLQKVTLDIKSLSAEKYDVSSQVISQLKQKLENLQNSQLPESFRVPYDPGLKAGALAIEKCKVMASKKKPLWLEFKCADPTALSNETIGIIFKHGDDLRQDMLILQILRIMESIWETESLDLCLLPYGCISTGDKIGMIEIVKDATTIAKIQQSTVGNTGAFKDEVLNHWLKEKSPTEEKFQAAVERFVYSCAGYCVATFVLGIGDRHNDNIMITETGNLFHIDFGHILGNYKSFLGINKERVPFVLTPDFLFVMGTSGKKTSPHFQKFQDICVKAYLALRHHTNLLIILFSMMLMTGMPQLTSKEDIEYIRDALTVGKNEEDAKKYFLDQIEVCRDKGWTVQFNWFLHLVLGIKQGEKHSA
T2 sequence (P53350 whole entry): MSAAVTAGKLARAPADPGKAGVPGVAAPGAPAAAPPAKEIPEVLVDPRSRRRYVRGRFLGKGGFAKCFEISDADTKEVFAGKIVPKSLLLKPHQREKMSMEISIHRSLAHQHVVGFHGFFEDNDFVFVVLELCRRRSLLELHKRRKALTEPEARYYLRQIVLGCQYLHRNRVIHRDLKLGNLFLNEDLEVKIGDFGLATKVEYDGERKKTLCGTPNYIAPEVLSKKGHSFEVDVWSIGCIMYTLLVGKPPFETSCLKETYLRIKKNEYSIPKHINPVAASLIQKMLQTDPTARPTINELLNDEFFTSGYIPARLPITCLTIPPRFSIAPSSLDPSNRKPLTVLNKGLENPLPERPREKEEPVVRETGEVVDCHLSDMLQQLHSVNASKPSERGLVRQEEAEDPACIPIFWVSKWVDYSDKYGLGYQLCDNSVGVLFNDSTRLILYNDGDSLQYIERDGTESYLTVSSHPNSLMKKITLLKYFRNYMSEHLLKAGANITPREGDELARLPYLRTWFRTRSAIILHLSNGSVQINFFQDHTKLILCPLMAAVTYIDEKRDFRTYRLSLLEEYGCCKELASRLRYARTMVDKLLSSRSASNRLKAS

Row | SMILES | KINOMEscan: PIK3CG (panel of 442 kinases [1]) | KINOMEscan: PLK1 (panel of 442 kinases [2]) | KINOMEscan: RIPK4 (panel of 442 kinases [3])
1 | COc1cc(C(=O)N2CCC(N3CCN(C)CC3)CC2)ccc1Nc1ncc2c(n1)N(C)c1ccccc1C(=O)N2C [15 (LRRK2-IN-1)] | 15 | 0.7 | 74
2 | COc1cc(C(=O)N2CCC(N3CCN(C)CC3)CC2)ccc1Nc1ncc2c(n1)N1CCc3cccc(c31)C(=O)N2C [Compound 24] | 30 | 0.2 | 
3 | COc1cc(C(=O)N2CCC(N3CCN(C)CC3)CC2)ccc1Nc1ncc2c(n1)N(C1CCCC1)c1ccccc1C(=O)N2C [Compound 25, 11-cyclopentyl-2-((2-methoxy-4-(4-(4-methylpiperazin-1-yl)piperidine-1-carbonyl)phenyl)amino)-5-methyl-5H-benzo[e]pyrimido[5,4-b][1,4]diazepin-6(11H)-one] | 80 | 43 | 100
4 | CCOc1cc(C(=O)N2CCC(N3CCN(C)CC3)CC2)ccc1Nc1ncc2c(n1)N(C1CCCC1)c1ccccc1C(=O)N2C [Compound 26] | 82 | 95 | 100
